Laboratory results reported in patent publication US11918575B2, “PZA and cytochrome Bc1 inhibitor combination treatment” (priority 2017, dated 2024).
Values after ≈ are worked out from the molar mass of the structure shown.

How the values were obtained:
[1] = tested on: Mycobacterium tuberculosis H37Rv; test: Mouse tuberculosis infection model, CFU counts in the lungs after treatment; assay type: in vivo; settings: female Swiss mice infected i.v. with H37Rv; oral once daily 5 times/week for 4 weeks (day 12-37); necropsy day 41; BDQ 3 mg/kg, Q203 or Cpd X 20 mg/kg, PZA 150 mg/kg; cut off 1.10 = below detectable level
[2] = assay type: physicochemical
Method: All formulations prepared in 20% HP-β-CD, and used for 5 treatments (one week).
All formulations were solutions and stored at 4° C. during the study.
Stability of BDQ and Q203 in formulation was previously tested, for PZA and Cpd X the stability was tested after one week and found acceptable for both compounds

M. tuberculosis H37Rv = settings: strain M. tuberculosis H37Rv, inside macrophages; cited from earlier work
M. tuberculosis = settings: cited from earlier work

**Q.** Which “mean log10 (CFUs in the lungs)” value [1] does the source give for COc1nc2ccc(Br)cc2cc1[C@@H](c1ccccc1)[C@@](O)(CCN(C)C)c1cccc2ccccc12 [BDQ, Bedaquiline] here?
**A.** 4.46 log10

**Q.** Which “mean log10 (CFUs in the lungs)” value [1] does the source give for CCc1nc2ccc(Cl)cn2c1C(=O)NCc1ccc(N2CC3(CCN(c4ccc(OC(F)(F)F)cc4)CC3)C2)cc1 [Cpd X] here?
**A.** 4.75 log10

**Q.** And the stability in formulation [2]?
**A.** acceptable

**Q.** Which “mean log10 (CFUs in the lungs)” value [1] does the source give for NC(=O)c1cnccn1 [PZA, Pyrazinamide] here?
**A.** 3.47 log10

**Q.** And the stability in formulation [2]?
**A.** acceptable

**Q.** With CCc1nc2ccc(Cl)cn2c1C(=O)NCc1ccc(N2CCC(c3ccc(OC(F)(F)F)cc3)CC2)cc1 [Q203] as the compound, how does the MIC50 (M. tuberculosis H37Rv) read?
**A.** 0.28 nM (≈ 0.156 ng/mL)

**Q.** And the “mean log10 (CFUs in the lungs)” value [1]?
**A.** 4.55 log10

**Q.** And the “activity against replicating and non-replicating bacteria” value (M. tuberculosis)?
**A.** highly active
